Laboratory results: patent US9433212B2, “Plant growth regulator and method for using the same” (NIHON NOHYAKU CO., LTD., priority 2011, dated 2016)

How the values were obtained:
Format in all cases: in vivo
[1] = tested on: germinating rice seeds (variety: Nihonbare); experiment: Test Example 2: rooting promotion and plant height growth in paddy rice plants (agar test); settings: 25 ppm in 0.7% agar, 8 days after seeding
Description: A 0.7% agar solution containing 25 ppm of flubendiamide was poured into a glass cylinder (3 cm diameter×10 cm) and allowed to be solidified. Onto the solidified agar, ten germinating rice seeds (variety: Nihonbare) were sown. Then, the top of the cylinder was covered with Japanese paper and the cylinder was placed in a thermostatic chamber (light-dark cycle: 16 hours of light and 8 hours of dark, relative humidity: 60 to 70%) at 25° C. At 8 days after the seeding, the lengths of the longest root (primary root) and the stem-and-leaf part extending from each seed-rice were measured and the averages were calculated. The percentages of elongation were also calculated with the proviso that the non-treatment levels were set as 100.

Scirpophaga incertulas = experiment: Test Example 1: control of Scirpophaga incertulas (dead hearts) in paddy field; settings: for Percentage of S. incertulas-caused dead hearts: applied once 10 days after transplantation, assessed 43 days after transplantation; for Percentage of control of S. incertulas: 43 days after transplantation
From the text: (§1) Paddy rice plants were transplanted to an experimental paddy field (50 m^2, planted with 1250 paddy rice plants on average), and 10 days later, granules containing flubendiamide as an active ingredient were applied once at the predetermined doses. At 43 days after the transplantation, in 10 rice plants chosen at random, the percentage of Scirpophaga incertulas-caused dead hearts per plant, the percentage of control of Scirpophaga incertulas, the stem number per plant, and the percentage of increase in the stem number were measured. To exclude the positive effect of the insecticidal action of flubendiamide on the growth of paddy rice plants, chlorantraniliprole, which has an equivalent insecticidal action, was used as a control agrochemical.

[2] = tested on: rice plants (variety: Takanari); experiment: Test Example 3: yield increase (numbers of panicles and unhulled rice grains) of paddy rice plants; settings: for Panicle number/plant / Unhulled rice grain number/plant: harvest at 100 days; for Percentage of increase (panicle number) / Percentage of increase (unhulled rice grain number): non-treatment = 100
Description: Rice plants (variety: Takanari) of the 6.5- to 7-leaf stage were transplanted to 1-m^2 plots of a paddy field, and 2 or 12 days later, flubendiamide granules were applied at the predetermined doses. The test was performed in 4 replications. At 100 days after the transplantation, the rice plants were harvested, the numbers of panicles and unhulled rice grains per plant were measured and the averages were calculated. The percentages of increase were also calculated with the proviso that the non-treatment levels were set as 100.

paddy rice plants = experiment: Test Example 1: increase in stem number (promotion of tillering) of paddy rice plants; settings: for Stem number/plant: 43 days after transplantation; for Percentage of increase in stem number: non-treatment = 100
From the text: as §1

[3] = 35 g a.i./ha granules applied 2 days after transplantation
[4] = 35 g a.i./ha granules applied 12 days after transplantation
[5] = 35 g a.i./ha, applied 2 days after transplantation
[6] = 35 g a.i./ha, applied 12 days after transplantation
[7] = 70 g a.i./ha granules applied 2 days after transplantation
[8] = 70 g a.i./ha granules applied 12 days after transplantation
[9] = 70 g a.i./ha, applied 2 days after transplantation
[10] = 70 g a.i./ha, applied 12 days after transplantation
[11] = regardless of application time and dose

In the case of `Cc1cc(C(F)(C(F)(F)F)C(F)(F)F)ccc1NC(=O)c1cccc(I)c1C(=O)NC(C)(C)CS(C)(=O)=O` [Flubendiamide, 3-iodo-N′-(2-mesyl-1,1-dimethylethyl)-N-{4-[1,2,2,2-tetrafluoro-1-(trifluoromethyl)ethyl]-o-tolyl}phthalamide], the Average root length ([1]; 25° C.) is reported as 6.7 cm, the Average stem-and-leaf length ([1]; 25° C.) is reported as 3.9 cm and the “Percentage of elongation in root length” value ([1]; non-treatment = 100) is reported as 160%. The “Percentage of elongation in stem-and-leaf length” value ([1]; non-treatment = 100) was 170%, the “Percentage of S. incertulas-caused dead hearts” value (Scirpophaga incertulas; 70 g a.i./ha granules) was 0.48% and the “Percentage of control of S. incertulas” value (Scirpophaga incertulas; 70 g a.i./ha) was 87.3%. For the same compound, the “Percentage of S. incertulas-caused dead hearts” value (Scirpophaga incertulas; 90 g a.i./ha granules) was 0.34%, the “Percentage of control of S. incertulas” value (Scirpophaga incertulas; 90 g a.i./ha) was 91.0% and the “Percentage of S. incertulas-caused dead hearts” value (Scirpophaga incertulas; 120 g a.i./ha granules) was 0.30%. For the same compound, the “Percentage of control of S. incertulas” value (Scirpophaga incertulas; 120 g a.i./ha) was 92.1%, the Panicle number/plant [2, 3] was 10.4 /plant and the “Unhulled rice grain number/plant” value [2, 3] was 1360.3 /plant. For the same compound, the Panicle number/plant [2, 4] was 11.9 /plant, the “Unhulled rice grain number/plant” value [2, 4] was 1528.0 /plant and the “Percentage of increase (panicle number)” value [2, 5] was 110%. The “Percentage of increase (unhulled rice grain number)” value [2, 5] was 110%, the “Percentage of increase (panicle number)” value [2, 6] was 126% and the “Percentage of increase (unhulled rice grain number)” value [2, 6] was 124%. The Panicle number/plant [2, 7] was 11.2 /plant, the “Unhulled rice grain number/plant” value [2, 7] was 1484.0 /plant and the Panicle number/plant [2, 8] was 12.5 /plant. For the same compound, the “Unhulled rice grain number/plant” value [2, 8] was 1600.0 /plant, the “Percentage of increase (panicle number)” value [2, 9] was 119% and the “Percentage of increase (unhulled rice grain number)” value [2, 9] was 120%. The “Percentage of increase (panicle number)” value [2, 10] was 132%, the “Percentage of increase (unhulled rice grain number)” value [2, 10] was 130% and the “Numbers of panicles versus non-treatment levels” value [2, 11] was “significantly increased”. For the same compound, the “Numbers of unhulled rice grains versus non-treatment levels” value [2, 11] was “significantly increased”, the Stem number/plant (paddy rice plants; 70 g a.i./ha) was 39.6 /plant and the “Percentage of increase in stem number” value (paddy rice plants; 70 g a.i./ha) was 178%. The Stem number/plant (paddy rice plants; 90 g a.i./ha) was 38.0 /plant, the “Percentage of increase in stem number” value (paddy rice plants; 90 g a.i./ha) was 171% and the Stem number/plant (paddy rice plants; 120 g a.i./ha) was 39.15 /plant. For the same compound, the “Percentage of increase in stem number” value (paddy rice plants; 120 g a.i./ha) was 176% and the “Increase in stem number per plant compared with the non-treatment level” value (paddy rice plants; flubendiamide treatment plots, regardless of dose (70-120 g a.i./ha)) was “about 17”.

For `CNC(=O)c1cc(Cl)cc(C)c1NC(=O)c1cc(Br)nn1-c1ncccc1Cl` [Chlorantraniliprole], the “Percentage of control of S. incertulas” value (Scirpophaga incertulas; 40 g a.i./ha) was 90.2%, the “Percentage of S. incertulas-caused dead hearts” value (Scirpophaga incertulas; 40 g a.i./ha) was 0.37% and the Stem number/plant (paddy rice plants; 40 g a.i./ha) was 26.35 /plant. For the same compound, the “Percentage of increase in stem number” value (paddy rice plants; 40 g a.i./ha) was 119%, the “Percentage of increase in stem number” value (paddy rice plants; 40 g a.i./ha, listed as chlorantraniliprole) was “about 120%” and the “Increase in stem number per plant compared with the non-treatment level” value (paddy rice plants; chlorantraniliprole treatment plot (40 g a.i./ha)) was “about four”.
